Test results from PubChem BioAssay (NCI).
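Following 48 hours of exposure in 96-well plates, responses at five concentrations were used to interpolate endpoints linearly. The concentration for 50% growth inhibition is given as GI50. TGI marks complete inhibition of growth.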

Experiments:
Assay in all cases: NCI-60 cell line screen, 48 h
[1] = test system: CAKI-1 renal
[2] = test system: A549 NSCLC
[3] = test system: KM12 colon
[4] = test system: MDA-MB-231 breast
[5] = test system: SNB-19 CNS
[6] = test system: OVCAR-4 ovarian
[7] = test system: SF-295 CNS
[8] = test system: HCT-116 colon
[9] = test system: MOLT-4 leukemia
[10] = test system: T-47D breast
[11] = test system: CCRF-CEM leukemia
[12] = test system: SK-MEL-2 melanoma
[13] = test system: NCI-H522 lung
[14] = test system: SF-539 CNS
[15] = test system: COLO 205 colon
[16] = test system: ACHN renal
[17] = test system: HOP-92 NSCLC
[18] = test system: DU-145 prostate
[19] = test system: MDA-MB-435
[20] = test system: HOP-62 NSCLC
[21] = test system: UACC-62 melanoma
[22] = test system: M14 melanoma
[23] = test system: OVCAR-3 ovarian
[24] = test system: OVCAR-5 ovarian
[25] = test system: EKVX NSCLC
[26] = test system: NCI-H23 lung
[27] = test system: MALME-3M melanoma

With `Cc1ccc(N=C/C=C(\Nc2ccc(C)cc2)c2ccc(Cl)cc2)cc1` the GI50 [1] was 8.52 µM, the TGI [1] was 40.4 µM and the GI50 [2] was 10.5 µM. The TGI [2] was 61.1 µM, the GI50 [3] was 5.36 µM and the TGI [3] was 46.7 µM. It also gave a GI50 [4] of 11.2 µM, a TGI [4] of 46.6 µM and a GI50 [5] of 17.3 µM. It also gave a TGI [5] of 70.6 µM, a GI50 [6] of 47.4 µM and a TGI [6] of over 100 µM. It also gave a GI50 [7] of 5.55 µM, a TGI [7] of 21.9 µM and a GI50 [8] of 5.54 µM. The TGI [8] was 46.8 µM, the GI50 [9] was 4.25 µM and the TGI [9] was over 100 µM. The GI50 [10] was over 100 µM, the TGI [10] was over 100 µM and the GI50 [11] was 1.95 µM. For the same compound, the TGI [11] was 33.5 µM, the GI50 [12] was 29.9 µM and the TGI [12] was over 100 µM. The GI50 [13] was 21.9 µM, the TGI [13] was 70 µM and the GI50 [14] was 6.1 µM. It also gave a TGI [14] of 26.6 µM, a GI50 [15] of 7.11 µM and a TGI [15] of over 100 µM. The GI50 [16] was 14.5 µM, the TGI [16] was over 100 µM and the GI50 [17] was 14 µM. The TGI [17] was 33.1 µM, the GI50 [18] was 15.6 µM and the TGI [18] was 38.4 µM. For the same compound, the GI50 [19] was 2.82 µM, the TGI [19] was 12 µM and the GI50 [20] was 14.9 µM. The TGI [20] was 35.9 µM, the GI50 [21] was 7.31 µM and the TGI [21] was 39.8 µM. The GI50 [22] was 4.96 µM, the TGI [22] was 22.5 µM and the GI50 [23] was 8.06 µM. For the same compound, the TGI [23] was 77.9 µM, the GI50 [24] was 24.4 µM and the TGI [24] was 94.9 µM. For the same compound, the GI50 [25] was 14 µM, the TGI [25] was 36.2 µM and the GI50 [26] was 11 µM. The TGI [26] was 32.3 µM and the GI50 [27] was 9.27 µM.
